{"source": "ChEMBL document CHEMBL5465560", "about": "“Selectivity Literature for EUbOPEN Chemogenomic Library” (2024)", "key": {"[1]": {"biological_target": "T1, Serine/threonine-protein kinase TAO1 (Homo sapiens) (UniProt Q7L7X3)", "T1 sequence (whole entry)": "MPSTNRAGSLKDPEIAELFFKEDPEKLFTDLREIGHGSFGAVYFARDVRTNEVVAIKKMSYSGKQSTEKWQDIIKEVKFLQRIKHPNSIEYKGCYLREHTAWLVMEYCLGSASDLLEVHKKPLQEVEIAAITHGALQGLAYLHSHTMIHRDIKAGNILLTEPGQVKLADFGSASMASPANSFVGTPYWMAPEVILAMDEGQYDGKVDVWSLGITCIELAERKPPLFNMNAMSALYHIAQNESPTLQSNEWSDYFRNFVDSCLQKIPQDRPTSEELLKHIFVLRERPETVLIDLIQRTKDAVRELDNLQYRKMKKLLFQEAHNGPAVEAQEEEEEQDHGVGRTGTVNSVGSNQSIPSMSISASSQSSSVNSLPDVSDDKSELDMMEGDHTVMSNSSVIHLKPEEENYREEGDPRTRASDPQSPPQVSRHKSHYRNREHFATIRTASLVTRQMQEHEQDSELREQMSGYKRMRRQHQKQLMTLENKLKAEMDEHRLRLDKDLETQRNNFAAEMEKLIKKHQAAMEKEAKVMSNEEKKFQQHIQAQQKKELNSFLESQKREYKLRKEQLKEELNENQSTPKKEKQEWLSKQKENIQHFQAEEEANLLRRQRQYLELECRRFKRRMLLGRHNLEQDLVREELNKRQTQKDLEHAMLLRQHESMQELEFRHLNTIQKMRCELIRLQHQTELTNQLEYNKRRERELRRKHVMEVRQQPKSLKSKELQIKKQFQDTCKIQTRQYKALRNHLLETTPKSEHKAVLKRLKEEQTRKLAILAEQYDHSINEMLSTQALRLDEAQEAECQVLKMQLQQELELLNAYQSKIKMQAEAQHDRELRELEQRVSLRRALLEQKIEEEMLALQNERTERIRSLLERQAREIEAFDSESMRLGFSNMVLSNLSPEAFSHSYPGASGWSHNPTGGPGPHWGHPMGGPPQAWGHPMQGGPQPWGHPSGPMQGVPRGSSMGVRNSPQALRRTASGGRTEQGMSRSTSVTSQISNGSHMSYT", "test": "Selectivity interaction (KinomeScan (DiscoverX)) EUB0000595a TAOK1", "conditions": "at 10 µM"}, "[2]": {"biological_target": "T2, Histone-lysine N-methyltransferase SETD7 (Homo sapiens) (UniProt Q8WTS6)", "T2 sequence (whole entry)": "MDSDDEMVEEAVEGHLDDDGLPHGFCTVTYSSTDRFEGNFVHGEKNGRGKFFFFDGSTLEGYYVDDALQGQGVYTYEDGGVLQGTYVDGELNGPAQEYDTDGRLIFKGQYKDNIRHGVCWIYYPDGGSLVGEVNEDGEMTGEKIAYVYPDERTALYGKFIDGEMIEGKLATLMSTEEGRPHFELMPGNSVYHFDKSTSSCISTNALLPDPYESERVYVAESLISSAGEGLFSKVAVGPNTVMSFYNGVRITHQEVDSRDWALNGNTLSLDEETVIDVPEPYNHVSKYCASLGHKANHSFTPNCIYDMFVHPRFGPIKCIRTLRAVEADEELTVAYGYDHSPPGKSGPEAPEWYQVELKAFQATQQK", "test": "Selectivity interaction (Transferase panel (protein, RNA, and DNA methyltransferases. and EP300 (acetyltransferase))) EUB0000270b SETD7"}, "[3]": {"biological_target": "T3, Cyclin-dependent kinase 11A (Homo sapiens) (UniProt Q9UQ88)", "T3 sequence (whole entry)": "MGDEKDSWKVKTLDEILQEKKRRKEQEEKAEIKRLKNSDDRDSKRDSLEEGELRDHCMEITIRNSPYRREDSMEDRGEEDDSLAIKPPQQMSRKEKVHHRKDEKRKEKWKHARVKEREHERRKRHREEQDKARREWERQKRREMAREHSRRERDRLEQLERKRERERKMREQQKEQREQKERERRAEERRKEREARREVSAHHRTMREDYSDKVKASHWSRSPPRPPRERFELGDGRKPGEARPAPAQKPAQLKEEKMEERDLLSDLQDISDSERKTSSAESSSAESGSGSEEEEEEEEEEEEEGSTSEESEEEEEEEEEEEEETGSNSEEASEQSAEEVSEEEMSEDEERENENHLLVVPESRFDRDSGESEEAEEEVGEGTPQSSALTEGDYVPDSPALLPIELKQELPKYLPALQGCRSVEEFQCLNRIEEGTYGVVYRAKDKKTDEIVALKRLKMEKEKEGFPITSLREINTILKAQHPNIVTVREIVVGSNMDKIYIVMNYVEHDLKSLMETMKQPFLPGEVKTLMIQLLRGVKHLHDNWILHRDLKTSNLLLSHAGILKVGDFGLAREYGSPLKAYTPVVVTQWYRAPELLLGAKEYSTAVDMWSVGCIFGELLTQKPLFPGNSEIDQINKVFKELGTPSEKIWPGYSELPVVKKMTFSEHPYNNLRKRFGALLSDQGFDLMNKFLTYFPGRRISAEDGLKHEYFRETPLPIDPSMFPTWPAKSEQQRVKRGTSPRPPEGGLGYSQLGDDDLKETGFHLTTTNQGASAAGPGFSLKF", "test": "Selectivity interaction (KinomeScan (DiscoverX)) EUB0000092b CDK11A", "conditions": "at 10 µM"}}}
{"smiles": "COCC(=O)NC/C=C/c1ccc2ncnc(Nc3ccc(Oc4ccc(C)nc4)c(C)c3)c2c1", "note": "[CP-724714]", "values": [{"measurement": "% of control", "setting": "[1]", "result": 94, "unit": "%"}]}
{"smiles": "Cc1cc(CN)cc(C)c1-c1ncn(C)c1-c1cncn1C", "values": [{"measurement": "% activity", "setting": "[2]; at 1 µM", "result": "> 90", "unit": "%"}, {"measurement": "% activity", "setting": "[2]; at 10 µM", "result": "> 80", "unit": "%"}]}
{"smiles": "CCC(=O)N1CCN(c2ccc(-n3c(=O)ccc4cnc5ccc(-c6cnc7ccccc7c6)cc5c43)cc2C(F)(F)F)CC1", "values": [{"measurement": "% of control", "setting": "[3]", "result": 100, "unit": "%"}]}
